Consider 14 compounds from patent US20210355121A1, “FUSED TRICYCLIC KRAS INHIBITORS” (Incyte Corporation, priority 2020, published 2021).

Broadly, the IC50 is the midpoint of a concentration-inhibition curve.

In one assay the target is KRAS G12D (Homo sapiens, UniProt P01116, G12D). In words: KRAS G12D GDP-GTP exchange assay (bodipy-GDP for GppNHp, with SOS1). The following applies: 2.5 nM bodipy loaded KRAS G12D, 4 hours after GppNHp-SOS1; read-out: G12D_exchange (KRAS_G12D exchange assay IC50). The assay is classed as biochemical. How it is done: (§1) The inhibitor potency of the exemplified compounds was determined in a fluorescence based guanine nucleotide exchange assay, which measures the exchange of bodipy-GDP (fluorescently labeled GDP) for GppNHp (Non-hydrolyzable GTP analog) to generate the active state of KRAS in the presence of SOS1 (guanine nucleotide exchange factor). Inhibitors were serially diluted in DMSO and a volume of 0.1 μL was transferred to the wells of a black low volume 384-well plate. 5 μL/well volume of bodipy-loaded KRAS G12C diluted to 5 nM in assay buffer (25 mM Hepes pH 7.5, 50 mM NaCl, 10 mM MgCl2 and 0.01% Brij-35) was added to the plate and pre-incubated with inhibitor for 2 hours at ambient temperature. Appropriate controls (enzyme with no inhibitor or with a G12C inhibitor (AMG-510)) were included on the plate. The exchange was initiated by the addition of a 5 μL/well volume containing 1 mM GppNHp and 300 nM SOS1 in assay buffer. The 10 μL/well reaction concentration of the bodipy-loaded KRAS G12C, GppNHp, and SOS1 were 2.5 nM, 500 uM, and 150 nM, respectively. The reaction plates were incubated at ambient temperature for 2 hours, a time estimated for complete GDP-GTP exchange in the absence of inhibitor. For the KRAS G12D and G12V mutants, similar guanine nucleotide exchange assays were used with 2.5 nM as final concentration for the bodipy loaded KRAS proteins and with 4 hours and 3 hours incubation after adding GppNHp-SOS1 mixture for G12D and G12V respectively. A cyclic peptide described to selectively bind G12D mutant (Sakamoto et al., BBRC 484.3 (2017), 605-611) or internal compounds with confirmed binding were used as positive controls in the assay plates. Fluorescence intensities were measured on a PheraStar plate reader instrument (BMG Labtech) with excitation at 485 nm and emission at 520 nm.
(§2) Either GraphPad prism or XLfit was used to analyze the data. The IC50 values were derived by fitting the data to a four parameter logistic equation producing a sigmoidal dose-response curve with a variable Hill coefficient. Prism equation: Y=Bottom+(Top−Bottom)/(1+10^((Log IC50−X)*Hill slope)); XLfit equation: Y=(A+((B−A)/(1+((X/C)^D)))) where X is the logarithm of inhibitor concentration and Y is the response.

For the next assay, the target named is KRAS G12V (Homo sapiens, UniProt P01116, G12V). As to the kind of experiment: KRAS G12V GDP-GTP exchange assay (bodipy-GDP for GppNHp, with SOS1). The assay is classed as biochemical. The following applies: 2.5 nM bodipy loaded KRAS G12V, 3 hours after GppNHp-SOS1; read-out: G12V_exchange (KRAS_G12V exchange assay IC50). How it is done:
as §1, §2

Another assay concerns the target KRAS G12C (Homo sapiens, UniProt P01116, G12C). In words: KRAS G12C GDP-GTP exchange assay (bodipy-GDP for GppNHp, with SOS1). Format: biochemical. The following applies: 2.5 nM bodipy-loaded KRAS G12C, 2 hours pre-incubation with inhibitor, 2 hours after GppNHp-SOS1; read-out: G12C_exchange (KRAS_G12C exchange assay IC50). In short, it runs like this: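 Fluorescence nucleotide-exchange assay: bodipy-GDP-loaded KRAS (2.5 nM final) pre-incubated with inhibitor 2 h at ambient temperature, then 500 µM GppNHp plus 150 nM SOS1 added in pH 7.5 Hepes/MgCl2 buffer. Exchange read at ex 485/em 520 nm after 2 h (G12C), 4 h (G12D) or 3 h (G12V). IC50 from four-parameter logistic fit.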

The test system of assay [1] is MIA PaCa-2 (KRAS G12C) cells. As to the kind of experiment: KRAS_G12C cellular pERK HTRF assay. The note with it: Homo sapiens, MIA PaCa-2; phospho-ERK1/2 HTRF, 4 hours incubation; read-out: G12C_pERK (KRAS_G12C pERK assay IC50). The assay is classed as cell-based, human. In short, it runs like this: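 MIA PaCa-2 (G12C) or G12D lines (A427, HPAF-II) in RPMI/10% FBS, treated with compound for 4 h (G12C) or 2 h (G12D) at 37 °C after overnight plating. Lysed, phospho-ERK1/2 detected by HTRF (665/620 nm). IC50 from percent inhibition versus log concentration.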
On the technique in general: In TR-FRET formats the signal depends on donor and acceptor labels being close together.

Where only a bound is given, the exact number is not on record here.

Sequence of KRAS G12V (P01116 1-188 isoform P01116-2 G12V): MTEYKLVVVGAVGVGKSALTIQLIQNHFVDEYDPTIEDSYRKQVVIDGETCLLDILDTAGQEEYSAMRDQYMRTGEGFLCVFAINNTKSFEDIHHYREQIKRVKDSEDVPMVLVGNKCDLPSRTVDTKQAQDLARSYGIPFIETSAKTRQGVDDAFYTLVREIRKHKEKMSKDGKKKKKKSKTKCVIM
Sequence of KRAS G12D (P01116 1-188 isoform P01116-2 G12D): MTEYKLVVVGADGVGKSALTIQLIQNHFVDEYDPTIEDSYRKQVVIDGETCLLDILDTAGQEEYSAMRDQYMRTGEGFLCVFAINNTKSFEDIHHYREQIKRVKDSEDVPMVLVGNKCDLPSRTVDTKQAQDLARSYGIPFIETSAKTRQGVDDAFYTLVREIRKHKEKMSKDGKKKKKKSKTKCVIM
Sequence of KRAS G12C (P01116 1-188 isoform P01116-2 G12C): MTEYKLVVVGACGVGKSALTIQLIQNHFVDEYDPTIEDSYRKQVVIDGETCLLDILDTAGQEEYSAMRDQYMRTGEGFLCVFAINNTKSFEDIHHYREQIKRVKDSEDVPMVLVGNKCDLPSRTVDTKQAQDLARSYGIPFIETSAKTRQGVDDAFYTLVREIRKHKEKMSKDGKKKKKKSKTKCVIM

As for `COC(=O)CCc1cc2c(OC[C@@H]3CCCN3C)nc3c(F)c(-c4cc(O)cc5ccccc45)c(CCC#N)cc3c2n1C1C2CNC1C2` (single isomer, unassigned) [Example 29], the IC50 on KRAS G12D and on KRAS G12V was no more than 100 nM throughout.

As for `CN(C)C(=O)CCc1cc2c(OC[C@@H]3CCCN3C)nc3c(F)c(-c4cc(O)cc5ccccc45)c(CCC#N)cc3c2n1C1C2CNC1C2` (stereo partly drawn) [Example 30, 3-(1-(2-azabicyclo[2.1.1]hexan-5-yl)-8-(2-cyanoethyl)-6-fluoro-7-(3-hydroxynaphthalen-1-yl)-4-(((S)-1-methylpyrrolidin-2-yl)methoxy)-1H-pyrrolo[3,2-c]quinolin-2-yl)-N,N-dimethylpropanamide], the IC50 on KRAS G12D and at KRAS G12V was no more than 100 nM in each case.

As for `CCCc1cc2c(OC[C@@H]3CCCN3C)nc3c(F)c(-c4cc(O)cc5ccccc45)c(CCC#N)cc3c2n1C1C2CNC1C2` (stereo partly drawn) [Example 31, 3-(1-(2-azabicyclo[2.1.1]hexan-5-yl)-6-fluoro-7-(3-hydroxynaphthalen-1-yl)-4-(((S)-1-methylpyrrolidin-2-yl)methoxy)-2-propyl-1H-pyrrolo[3,2-c]quinolin-8-yl)propanenitrile], the IC50 on KRAS G12D and on KRAS G12V was no more than 100 nM throughout.

For the compound `CN1CCC[C@H]1COc1nc2c(F)c(-c3cc(O)cc4ccccc34)c(CCC#N)cc2c2c1cc(-c1cnn(C)c1)n2C1C2CNC1C2` (stereo partly drawn) [Example 32, 3-(1-(2-azabicyclo[2.1.1]hexan-5-y1)-6-fluoro-7-(3-hydroxynaphthalen-1-y1)-2-(1-methyl-1H-pyrazol-4-y1)-4-(((S)-1-methylpyrrolidin-2-yl)methoxy)-1H-pyrrolo[3,2-c]quinolin-8-yl)propanenitrile], the IC50 on KRAS G12D and on KRAS G12V was no more than 100 nM each time.

Consider `CN1CCC[C@H]1COc1nc2c(F)c(-c3cc(O)cc4ccccc34)c(CCC#N)cc2c2c1ccn2C1C2CNC1C2` (stereo partly drawn) [Example 33, 3-(1-(2-azabicyclo[2.1.1]hexan-5-yl)-6-fluoro-7-(3-hydroxynaphthalen-1-yl)-4-(((S)-1-methylpyrrolidin-2-yl)methoxy)-1H-pyrrolo[3,2-c]quinolin-8-yl)propanenitrile], for which the IC50 at KRAS G12D was no more than 100 nM; at KRAS G12V, 100 to 1000 nM.

On to `CN1CCC[C@H]1COc1nc2c(F)c(-c3cc(O)cc4ccccc34)c(CCC#N)cc2c2c1c(-c1ccccc1)cn2C1C2CNC1C2` (stereo partly drawn) [Example 34, 3-(1-(2-azabicyclo[2.1.1]hexan-5-yl)-6-fluoro-7-(3-hydroxynaphthalen-1-yl)-4-(((S)-1-methylpyrrolidin-2-yl)methoxy)-3-phenyl-1H-pyrrolo[3,2-c]quinolin-8-yl)propanenitrile], for which the values for the IC50 at KRAS G12D and on KRAS G12V were 100 to 1000 nM and 1000 to 5000 nM, respectively.

For `CN1CCC[C@H]1COc1nc2c(F)c(-c3cc(O)cc4ccccc34)c(CCC#N)cc2c2c1c(-c1cccnc1)cn2C1C2CNC1C2` (stereo partly drawn) [Example 35, 3-(1-(2-azabicyclo[2.1.1]hexan-5-yl)-6-fluoro-7-(3-hydroxynaphthalen-1-yl)-4-(((S)-1-methylpyrrolidin-2-yl)methoxy)-3-(pyridin-3-yl)-1H-pyrrolo[3,2-c]quinolin-8-yl)propanenitrile], the IC50 at KRAS G12D was no more than 100 nM; on KRAS G12V, 100 to 1000 nM.

For the compound `Cc1ncc(-c2cn(C3C4CNC3C4)c3c2c(OC[C@@H]2CCCN2C)nc2c(F)c(-c4cc(O)cc5ccccc45)c(CCC#N)cc23)o1` (stereo partly drawn) [Example 36, 3-(1-(2-azabicyclo[2.1.1]hexan-5-yl)-6-fluoro-7-(3-hydroxynaphthalen-1-yl)-3-(2-methyloxazol-5-yl)-4-(((S)-1-methylpyrrolidin-2-yl)methoxy)-1H-pyrrolo[3,2-c]quinolin-8-yl)propanenitrile], the IC50 is no more than 100 nM at KRAS G12D and 100 to 1000 nM on KRAS G12V.

`Cc1ncc(-c2cn(C3C4CNC3C4)c3c2c(OC[C@@H]2CCCN2C)nc2c(F)c(-c4cc(O)cc5ccccc45)c(CCC#N)cc23)s1` (stereo partly drawn) [Example 37, 3-(1-(2-azabicyclo[2.1.1]hexan-5-yl)-6-fluoro-7-(3-hydroxynaphthalen-1-yl)-4-(((S)-1-methylpyrrolidin-2-yl)methoxy)-3-(2-methylthiazol-5-yl)-1H-pyrrolo[3,2-c]quinolin-8-yl)propanenitrile]: the IC50 on KRAS G12D was no more than 100 nM; on KRAS G12V it was 100 to 1000 nM.

With `CN1CCC[C@H]1COc1nc2c(F)c(-c3cc(O)cc4ccccc34)c(CCC#N)cc2c2c1c(-c1cnn(C)c1)cn2C1C2CNC1C2` (stereo partly drawn) [Example 38, 3-(1-(2-azabicyclo[2.1.1]hexan-5-yl)-6-fluoro-7-(3-hydroxynaphthalen-1-yl)-3-(1-methyl-1H-pyrazol-4-yl)-4-(((S)-1-methylpyrrolidin-2-yl)methoxy)-1H-pyrrolo[3,2-c]quinolin-8-yl)propanenitrile], the 50% inhibitory concentration (IC50) at KRAS G12D is no more than 100 nM; on KRAS G12V it was 100 to 1000 nM.

As for `CN1CCC[C@H]1COc1nc2c(F)c(-c3cc(O)cc4ccccc34)c(CCC#N)cc2c2c1cc(-c1ccn(C)n1)n2C1C2CNC1C2` (stereo partly drawn) [Example 39, 3-(1-(2-azabicyclo[2.1.1]hexan-5-yl)-6-fluoro-7-(3-hydroxynaphthalen-1-yl)-2-(1-methyl-1H-pyrazol-3-yl)-4-(((S)-1-methylpyrrolidin-2-yl)methoxy)-1H-pyrrolo[3,2-c]quinolin-8-yl)propanenitrile], the IC50 on KRAS G12D and at KRAS G12V was no more than 100 nM throughout.

For `CC#CC(=O)N1CC[C@H](n2ncc3c(O[C@@H](C)[C@@H]4CCCN4C)nc4c(F)c(-c5cccc6cccc(Cl)c56)c(Cl)cc4c32)C[C@H]1CC#N` [Example 87, 2-((2S,4S)-1-(but-2-ynoyl)-4-(8-chloro-7-(8-chloronaphthalen-1-yl)-6-fluoro-4-((S)-1-((S)-1-methylpyrrolidin-2-yl)ethoxy)-1H-pyrazolo[4,3-c]quinolin-1-yl)piperidin-2-yl)acetonitrile], the IC50 (on KRAS G12C; in assay [1]) was no more than 100 nM in each case.

Regarding `COC/C=C/C(=O)N1CC[C@H](n2ncc3c(O[C@@H](C)[C@@H]4CCCN4C)nc4c(F)c(-c5cccc6cccc(Cl)c56)c(Cl)cc4c32)C[C@H]1CC#N` [Example 88, 2-((2S,4S)-4-(8-chloro-7-(8-chloronaphthalen-1-yl)-6-fluoro-4-((S)-1-((S)-1-methylpyrrolidin-2-yl)ethoxy)-1H-pyrazolo[4,3-c]quinolin-1-yl)-1-((E)-4-methoxybut-2-enoyl)piperidin-2-yl)acetonitrile], the IC50 (at KRAS G12C; in assay [1]) was no more than 100 nM throughout.

With `C[C@H](Oc1nc2c(F)c(-c3cccc4cccc(Cl)c34)c(Cl)cc2c2c1cnn2[C@H]1CCN(C(=O)/C=C/CN(C)C)[C@H](CC#N)C1)[C@@H]1CCCN1C` [Example 89, 2-((2S,4S)-4-(8-chloro-7-(8-chloronaphthalen-1-yl)-6-fluoro-4-((S)-1-((S)-1-methylpyrrolidin-2-yl)ethoxy)-1H-pyrazolo[4,3-c]quinolin-1-yl)-1-((E)-4-(dimethylamino)but-2-enoyl)piperidin-2-yl)acetonitrile], the IC50 (on KRAS G12C; in assay [1]) was no more than 100 nM throughout.
